Measurements from paper PMC4215196 (Journal of nuclear medicine : official publication, Society …, 2009).

Legend:
[1] = In vitro stability in mouse serum; type: in vitro ADME; conditions: for percentage of intact probe: 37°C
A375M tumors = conditions: µPET
[2] = µPET ROI analysis, normal lung
B16F10 cells = experiment: In vitro cell uptake in B16F10 cells
[3] = test system: B16F10 melanoma lung metastases; experiment: µPET ROI analysis, B16F10 lung metastases model; conditions: lungs harboring metastasis
[4] = test system: B16F10 pulmonary metastases; experiment: Biodistribution in B16F10 lung metastases bearing mice; conditions: 2 h p.i.
B16F10 melanoma = experiment: Biodistribution in subcutaneous B16F10 tumor bearing mice
B16 melanoma = conditions: C57BL6 mice bearing B16 melanoma, 24 h; cited from earlier work
[5] = subcutaneous B16F10 tumor bearing mice, 2 h p.i.

CCN(CC)CCNC(=O)c1ccc([18F])cc1 [^18F-FBZA, ^18F-N-[2-(diethylamino)ethyl]-4-fluoro-Benzamide]
percentage of intact probe ([1]; 30 min incubation): 94.1% | percentage of intact probe ([1]; 60 min incubation): 93.5% | percentage of intact probe ([1]; 120 min incubation): 87.8% | percentage of intact probe ([1]; 150 min incubation): 85.1% | Defluorination ([1]; up to 150 min): not observed | tumor uptake, PET ROI analysis (A375M tumors): 0.86 ± 0.03 %ID/g | lung uptake, µPET ROI analysis [2]: 1.2 ± 0.2 %ID/g | cellular accumulation (B16F10 cells; B16F10 cells pretreated with L-tyrosine (2.0 mM) 24 h, 4°C, 30 minutes): 4.5 ± 0.5% | cell uptake (B16F10 cells; B16F10 cells pretreated with L-tyrosine (2.0 mM) 24 h, 37°C, 30 minutes): 10.7 ± 0.8% | cellular accumulation (B16F10 cells; non-treated B16F10 cells, 2-hour incubation, 4 °C): 0.49 ± 0.03% | cellular accumulation (B16F10 cells; non-treated B16F10 cells, 2-hour incubation, 37 °C): 0.52 ± 0.1% | uptake at 4°C less than cellular uptake at 37°C (B16F10 cells; tyrosine stimulated B16F10 cells, 30 minutes): 58% | fold increase of uptake compared to non-treated B16F10 cells (B16F10 cells; tyrosine stimulated cells, 37°C): 18–25 fold | lung uptake, µPET ROI analysis ([3]; tumor dose 0.4 × 10^6 B16F10 cells): 9.0 ± 0.4 %ID/g | lung uptake, µPET ROI analysis ([3]; tumor dose 0.8 × 10^6 B16F10 cells): 15.3 ± 1.1 %ID/g | Uptake Ratio Lung / Blood ([4]; lung metastases from 0.2 × 10^6 B16F10 cells): 24.7 ± 13.5 | Uptake Ratio Lung / Blood ([4]; lung metastases from 0.4 × 10^6 B16F10 cells): 38.9 ± 10.3 | tumor to brain ratio (B16F10 melanoma; B16F10 model, 1 h): 5.14 ± 1.10 | lung-to-blood ratio (B16F10 melanoma; B16F10 subcutaneous tumor bearing mice, 2 h): 4.72 ± 0.46 | Uptake Ratio Tumor / Blood (B16F10 melanoma; [5]): 34.0 ± 13.2 | Uptake Ratio Tumor / Muscle (B16F10 melanoma; [5]): 23.3 ± 10.1

CCN(CC)CCNC(=O)c1ccc([125I])cc1 [^125I-BZA, N-(2-diethylaminoethy1)-4-^125I-iodo-benzamide]
tumor-to-blood ratio (B16 melanoma): 37.3 ± 6.9
